Data on 11 molecules can be found in patent publication US8889638B2, “Stimulus-triggered prodrugs” (The Regents of the University of California, priority 2010, dated 2014).

Each structure is given as a SMILES string.

The target of data set [1] is T1, MMP-9 (catalytic domain, human, recombinant) (Homo sapiens, UniProt P14780).
T1 construct: MMP-9 (catalytic domain, human, recombinant); purchased BIOMOL International
In words: MMP-9 fluorescence-based inhibition assay with and without β-glucosidase. It is filed as biochemical. The note with it: for inhibition of MMP-9 when exposed to β-glucosidase: 1 mM for 2, 4 mM for 4, 125 μM for 6; for inhibition of MMP-9 in the absence of β-glucosidase: 1 mM for 2, 4 mM for 4, 125 μM for 6, 16 μM for 8. As to the method:
MMP-9 (catalytic domain, human, recombinant), MMP-8 (catalytic domain, human, recombinant), and the assay kit were purchased from BIOMOL International. The assays were carried out according to the procedure provided with the kit. MMP activity was measured in 96-well plates using a Bio-Tek Flx 800 fluorescent plate reader. The ZBGs and their protected analogs were dissolved in DMSO and diluted in HEPES buffer (50 mM, pH 7.5) to a concentration of 10 mM for 1-2, 40 mM for 3-4, and 1.25 mM for 5-6. Each well contained 20 μL, of MMP-9 (0.45 U/mL), inhibitor (10 μL, of 1-6), 5 μL, of β-glucosidase (1 U/μL) when used, and buffer for a total volume of 99 μL. These were incubated for 1 h at 37° C. […] The reaction was initiated by the addition of 1 μL (400 μM) of the fluorescent substrate (Mca-Pro-Leu-Gly-Leu-Dpa-Ala-Arg-NH2 where Mca=(7-methoxycoumarin-4-yl)-acetyl and Dpa=N-3-(2,4-dinitrophenyl)-L-α-β-diaminopropionyl)) and kinetic activity was measured every minute for 30 min with excitation and emission wavelengths at 335 nm and 405 nm, respectively. Enzyme activity with inhibitor was calculated with respect to the control experiment (no inhibitor present). Measurements were performed in duplicate in two independent experiments.
For Cmpds 7 and 8, 1 mL sample in HEPES buffer at a concentration of 1 mM was incubated at 37° C. with 250 U of β-glucosidase (1 U/μL) for 4 h giving a final concentration of 0.8 mM of the inhibitor. After 4 h, a 200 μL aliquot was collected and filtered through a microcentrifuge filter. UV-Vis absorption spectroscopy was to verify that the concentration of 1,2-HOPO-2 was 0.71±0.2 mM in each of the samples using the extinction coefficient for 1,2-HOPO-2 (7) calculated at 346 nm (4,279.3±372 M-1 cm-1). Each well was made up with 20 μL of MMP-9 (0.45 U/mL), inhibitor (2 μL, for 7 and 8), and buffer for a total volume of 99 μL. These were incubated for 30 min at 37° C. For MMP-8 inhibition assays, each of the samples was diluted to 1 μM in HEPES buffer and 15 μL of each were added to 20 μL of MMP-8 (0.092 U/mL) and buffer for a total of 99 μL. The reaction was initiated by the addition of 1 μL (400 μM) of the fluorescent substrate and kinetic activity was measured every minute for 30 min with excitation and emission wavelengths at 335 nm and 405 nm, respectively. Enzyme activity with inhibitor was calculated with respect to the control experiment (no inhibitor present). A control sample was also performed, in which an aliquot of 250 U of β-glucosidase (1 U/μL) with 1 mL of HEPES buffer was incubated for 4 h at 37° C., filtered through a microcentrifuge filter, and evaluated in the MMP assay to confirm that no inhibition is observed with β-glucosidase. Measurements were performed in duplicate in two independent experiments. […]

The nature of data set [2]: Cleavage of boronic ester/acid protected compounds by H2O2 (UV-Vis, rate constant, HPLC). Format: physicochemical. The note with it: for k, pseudo first-order rate constants calculated with an excess of H2O2: 50 μM in HEPES buffer pH 7.5, room temperature. As for the experimental part: (§1) Absorption spectra of compounds B1-B16 were taken on a Perkin-Elmer Lambda 25 UV-visible spectrophotometer. To a 1.0 mL solution at 0.05 mM concentration in HEPES buffer (50 mM, pH 7.5) was added H2O2 (10 uL (0.09 M) in HEPES for compounds B1-B12 and B14-B16, 10 uL (0.9 M) in HEPES for compound B3, and 2.8 uL (0.09 M) in HEPES for compound B13). Spectra were monitored over time at room temperature. Absorption spectra of compounds B17-B21 were taken on a Perkin-Elmer Lambda 25 UV-visible spectrophotometer. To a 1.0 mL solution at 0.05 mM concentration of compounds 1-7 in HEPES buffer (50 mM, pH=7.5) was added H2O2 (10 uL, 0.09 M in HEPES) or KO2 (0.10 mM) with catalase (5 U). Hydrolytic stability was measured by monitoring samples of B19-B21 in HEPES buffer for a 24 h time period. Spectra were monitored over time at room temperature.
The pseudo-first order rate constant was calculated by monitoring the absorption spectra over time in the presence of excess hydrogen peroxide. To a 1.0 mL solution of compounds B1-B3 and B10-B14 in HEPES buffer (50 mM, pH 7.5) at 50 μM was added H2O2 to final concentrations of 150 μM, 250 μM, 500 μM, 750 μM, and 900 μM. Spectra were monitored over 15-30 min at room temperature with at least 50 spectra recorded. The change in absorption at 302 nm for B1-B3, 272 nm for B10, 312 nm for B11, 268 for B12, 306 nm for B13, and 303 nm for B14 were monitored. For compounds B1-B3 and B10-B11, the rate constant (kobs) was found from monitoring the appearance of the monitored absorption peak by plotting the linear slope of ln [(A∞−At)/(A∞)] vs. time (where A∞ is the absorbance of a 50 μM sample of the methyl salicylate for B1-B3, maltol for B10, and 1,2-HOPO for B11). For compounds B12-B14 the rate constant (kobs) was found from monitoring the disappearance of the monitored absorption peak by plotting the linear slope of ln [(A−AZBG)/(A0−AZBG)] vs. time (where AZBG is the absorbance of a 50 μM sample of the ZBG and A0 is the initial absorbance of […]).^3 The rate of conversion was determined from the slope of the line of kobs vs. [H2O2]. The pseudo-first order rate constant was calculated following literature procedure.^[15] To a 1.0 mL solution of compounds B19-B21 in HEPES buffer at 50 μM was added H2O2 to final concentrations of 150 μM, 250 μM, 500 μM, 750 μM, and 900 μM. Spectra were monitored over 15-30 min at room temperature with at least 50 spectra recorded. The change in absorption at 292 nm for B19 and 252 nm for B20 and B21 were monitored. The rate constant (kobs) was found from the linear slope of ln [(A−AZBG)/(A0−AZBG)] vs. time (where AZBG is the absorbance of a 50 μM sample of the ZBG and A0 is the initial absorbance of B19-B21). The rate of conversion was determined from the slope of the line of kobs vs. [H2O2].
Analytical HPLC was performed on a HP Series 1050 system equipped with a Vydac® C18 reverse phase column (218 TP, 250×4.6 mm, 5 μm). […] Starting with 95% A and 5% B, an […] gradient was run for 15 min to a final solvent mixture of 5% A and 95% B, which was held for 5 min before ramping back down to 95% A and 5% B in 2 min and holding for an additional 4 min. Compounds were prepared in HEPES buffer (50 mM, pH 7.5) at a concentration of 1 mM. Retention times of compounds were determined under identical HPLC conditions prior to and after reaction with H2O2. LC-MS(+) was performed on compounds B6, B15 and B16 to confirm cleavage of the boronic ester to the phenolic moiety.

Data set [3] in a line: Hydrolytic stability of boronic ester compounds in HEPES buffer. Format: physicochemical. The following applies: for hydrolytic stability in buffer: 4 h period. As for the experimental part: as §1
Data set [4] is described as follows: Hydrolytic stability of sulfonate esters in HEPES buffer. Format: physicochemical. As to the method:
Absorption spectra of compounds were taken on a Perkin-Elmer Lambda 25 UV-Visible Spectrophotometer. To a 1.0 mL solution at 0.05 mM concentration of each compound in HEPES buffer (50 mM, pH 7.5) was added H2O2 (10 μL, 0.09M in HEPES) and absorption spectra were monitored over time at room temperature. Hydrolytic stability was measured by monitoring each sample in HEPES buffer over a 24 hour time period.

T1 sequence (P14780 107-444 limits assumed): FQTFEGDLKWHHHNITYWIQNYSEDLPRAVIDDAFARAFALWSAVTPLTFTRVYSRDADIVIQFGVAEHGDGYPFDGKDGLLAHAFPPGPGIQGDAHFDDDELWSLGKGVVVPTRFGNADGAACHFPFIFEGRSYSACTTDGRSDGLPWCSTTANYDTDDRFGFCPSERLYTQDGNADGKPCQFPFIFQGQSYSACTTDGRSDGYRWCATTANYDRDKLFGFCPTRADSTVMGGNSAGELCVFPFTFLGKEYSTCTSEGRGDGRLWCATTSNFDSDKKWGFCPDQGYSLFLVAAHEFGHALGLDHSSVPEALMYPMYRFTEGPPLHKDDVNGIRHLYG

Turning to `O=c1ccccn1OC1OC(CO)C(O)C(O)C1O` [Compound 2, 1-Hydroxypyridin-2(1H)-one-β-D-glucopyranoside], in data set [1], the “inhibition of MMP-9 when exposed to β-glucosidase” value (shortened to “inhibition of MMP-9 when exposed”) is on record as “complete restoration of inhibition” and the “inhibition of MMP-9 in the absence of β-glucosidase” value (“inhibition … of β-glucosidase” below) is “attenuated inhibition”.

Turning to `Cc1occc(=O)c1OC1OC(CO)C(O)C(O)C1O` [Compound 4, 2-Methyl-4H-pyran-4-one-3-β-D-glucopyranoside], in data set [1], the “inhibition of MMP-9 when exposed” value was “complete restoration of inhibition” and the “inhibition … of β-glucosidase” value is recorded as “attenuated inhibition”.

Regarding `Cc1occc(=S)c1OC1OC(CO)C(O)C(O)C1O` [Compound 6, 2-Methyl-4H-pyran-4-thione-3-β-D-glucopyranoside], in data set [1], the “inhibition of MMP-9 when exposed” value is given as “complete restoration of inhibition” and the “inhibition … of β-glucosidase” value is “attenuated inhibition”.

With `COC(=O)c1ccccc1OCc1ccc(B2OC(C)(C)C(C)(C)O2)cc1` [Compound B1, Methyl 2-((4-(4,4,5,5-tetramethyl-1,3,2-dioxaborolan-2-yl)benzyl)oxy)benzoate], the “k, pseudo first-order rate constants calculated with an excess of H2O2” value in data set [2] is 1.12 ± 0.04 M⁻¹ s⁻¹. The “hydrolytic stability in buffer” value in data set [3] is recorded as “stable”.

For `COC(=O)c1ccccc1OC(=O)OCc1ccc(B2OC(C)(C)C(C)(C)O2)cc1` [Compound B2, Methyl 2-((((4-(4,4,5,5-tetramethyl-1,3,2-dioxaborolan-2-yl)benzyl)oxy)carbonyl)oxy)benzoate], in data set [2], the “k, pseudo first-order rate constants calculated with an excess of H2O2” value was 2.7 ± 0.1 M⁻¹ s⁻¹. Also, the “hydrolytic stability in buffer” value in data set [3] is on record as “spontaneous hydrolytic cleavage”.

With `COC(=O)c1ccccc1B1OC(C)(C)C(C)(C)O1` [Compound B3, Methyl 2-(4,4,5,5-tetramethyl-1,3,2-dioxaborolan-2-yl)benzoate], the “k, pseudo first-order rate constants calculated with an excess of H2O2” value in data set [2] is 0.031 ± 0.002 M⁻¹ s⁻¹. In addition, the “hydrolytic stability in buffer” value in data set [3] is “comparable to the ether linkage used in B1”.

With `Cc1c(OCc2ccc(B3OC(C)(C)C(C)(C)O3)cc2)c(=O)ccn1C` [Compound B12, 1,2-Dimethyl-3-((4-(4,4,5,5-tetramethyl-1,3,2-dioxaborolan-2-yl)benzyl)oxy)pyridin-4(1H)-one], the “k, pseudo first-order rate constants calculated with an excess of H2O2” value in data set [2] is 3.5 ± 0.3 M⁻¹ s⁻¹.

Take `CC1(C)OB(c2ccc(COc3cccccc3=O)cc2)OC1(C)C` [Compound B13, 2-((4-(4,4,5,5-Tetramethyl-1,3,2-dioxaborolan-2-yl)benzyl)oxy)cyclohepta-2,4,6-trienone]: the “k, pseudo first-order rate constants calculated with an excess of H2O2” value in data set [2] is 2.9 ± 0.1 M⁻¹ s⁻¹.

For the molecule `CC1(C)OB(c2ccc(COc3cccc4cccnc34)cc2)OC1(C)C` [Compound B14, 8-((4-(4,4,5,5-Tetramethyl-1,3,2-dioxaborolan-2-yl)benzyl)oxy)quinoline], the “k, pseudo first-order rate constants calculated with an excess of H2O2” value in data set [2] is 4.1 ± 0.2 M⁻¹ s⁻¹.

With `Cc1occc(=O)c1OC(=O)OCc1ccc(B2OC(C)C(C)(C)O2)cc1` (stereo not drawn) [Compound B21, 2-methyl-4-oxo-4H-pyran-3-yl 4-(4,4,5-trimethyl-1,3,2-dioxaborolan-2-yl)benzyl carbonate], the “rate constant of conversion with an excess of H2O2” value in data set [2] (pseudo-first order conditions, HEPES buffer) amounted to 6.7 M⁻¹ s⁻¹. Moreover, the hydrolysis in buffer in data set [3] (24 h time period) is given as more than 50%.

In the case of `O=c1ccccn1OS(=O)(=O)c1ccc([N+](=O)[O-])cc1[N+](=O)[O-]` [PZBG-1d, 2-Oxopyridin-1(2H)-yl 2,4-dinitrobenzenesulfonate], the “stability in aqueous buffer in the absence of H2O2” value in data set [4] is reported as “rapid hydrolytic cleavage”.
